Values of other authors in patent US20200246376A1, “HYDROGEN BASED COMPOSITIONS” (HYDROGEN4HEALTH PTY LTD, priority 2019, published 2020).

[HH] [molecular hydrogen, hydrogen]
saturation of molecular hydrogen in water (hydrogen water prepared by electrolysis): around 1.6 ppm
typical saturation of hydrogen gas in water (standard temperature and pressure (STP)): 1.6 mg/L
